According to US20210205329A1 (The University of North Carolina at Chapel Hill, priority 2018, published 2021):

Tested on: MCP-1
Assay: MCP-1 ELISA in P rat NAc
Format: in vivo
Conditions: 15 mg/kg I.P., 45 min
Protocol: ELISA. Brain tissue micropunches were lysed with Cellyte MT and the extracts were assayed for protein content by the BCA procedure (Pierce) and for MCP-1 using the rat MCP-1 ELISA kit (Raybiotech—ERC-MCP-1-CL; Norcross, Ga., USA) or for fracktalkine using the rat fractalkine ELISA kit (Raybiotech—ERC-CX3CL1-CL; Norcross, Ga., USA) as per manufacturer's instructions.
Next, potential sex differences were directly examined in baseline or 3α,5α-THP inhibition of MCP-1 and pIRF7 expression in female vs. male P rat NAc (FIG. 9). […] Systemic administration of 3α,5α-THP (15 mg/kg, I.P.) to naïve female and male P rats inhibited the expression of MCP-1 (40% in female rat NAc; 25% in male rat NAc). Likewise, 3α,5α-THP administration to naïve female and male P rats inhibited the expression of pIRF7 to the same extent, (55% in female rat NAc; 55% in male rat NAc).

With CC(=O)[C@H]1CC[C@H]2[C@@H]3CC[C@H]4C[C@H](O)CC[C@]4(C)[C@H]3CC[C@]12C [3α,5α-THP, (3α,5α)3-hydroxypregnan-20-one] as the molecule, how does the “inhibition of MCP-1 expression in NAc” value (naïve female P rats) read?
The value was 40%.

What about the “inhibition of MCP-1 expression in NAc” value (naïve male P rats) of the same molecule?
Its value is 25%.
